Laboratory results: patent US6300345A, “Cyanoguanidines as cell proliferation inhibitors” (Leo Pharmacuetical Products Ltd. A/S (L.o slashed.vens …, priority 1997, dated 2001)

Tests used:
Format in all cases: cell-based
[1] = tested on: human non small cell lung cancer (NCI-H460); assay: Inhibition of tumour cell proliferation in vitro ([3H]thymidine incorporation), NCI-H460; settings: NCI-H460, 24 hours
Description: (§1) The inhibition of tumour cell proliferation was studied using different types of human cancer cell lines. The cell lines under investigation were small cell lung carcinoma (NYH), non small cell lung carcinoma (NCI-H460), and breast cancer (MCF-7) using the following general procedure:
(§2) The cells were cultured in vitro for 24 hours in the presence of the compound under investigation. DNA synthesis was measured by incorporation of [3H]thymidine, and the median inhibitory concentrations (IC50) of the compounds were calculated.

[2] = tested on: human small cell lung carcinoma (NYH); assay: Inhibition of tumour cell proliferation in vitro ([3H]thymidine incorporation), NYH; settings: 24 hours
Description: as §1, §2

[3] = tested on: human breast cancer (MCF-7); assay: Inhibition of tumour cell proliferation in vitro ([3H]thymidine incorporation), MCF-7; settings: MCF7, MCF-7, 24 hours
Description: as §1, §2

| IC50 [1] [nM] | IC50 [2] [nM] | IC50 [3] [nM] | SMILES |
| --- | --- | --- | --- |
| 65 | 4.4 | 26 | N#CN=C(NCCCCCCCCCCCCNC(=NC#N)Nc1cccnc1)Nc1cccnc1 [Example No. 6, 1,12-Bis(N'-cyano-N"-3-pyridylguanidino)dodecane] |
| 65 | 0.91 | 6.6 | N#CN=C(NCCCCCCCCCCNC(=NC#N)Nc1ccncc1)Nc1ccncc1 [Example No. 8, 1,10-Bis(N'-cyano-N"-4-pyridylguanidino)decane] |
| 69 | 0.5 | 13 | N#CN=C(NCCCCCCCCCCCCNC(=NC#N)Nc1ccncc1)Nc1ccncc1 [Example No. 14, 1,12-Bis(N'-cyano-N"-4-pyridylguanidino)dodecane] |
